The values that follow come from PubChem BioAssay (NCI).

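Each compound was tested at five concentrations against cells in 96-well plates for 48 hours. Abbreviation: GI50, concentration required for 50% inhibition of growth. TGI is the concentration that stops growth completely.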 Where a SMILES comes first, the peptide text is derived from it. [ ]: non-standard residue; d: D form. The star is where a group is joined. ξ: configuration not given here. NMeF = CN[C@@H](Cc1ccccc1)C(=O)O; NMeV = CN[C@H](C(=O)O)C(C)C; ξNMeV = CNC(C(=O)O)C(C)C; Boc = CC(C)(C)OC(=O)*; OBn = c1ccc(CO*)cc1

Test systems include A498 renal; COLO 205 colon; SR leukemia; K-562 leukemia; TK-10 renal; NCI-H226 lung; HOP-92 NSCLC; SK-OV-3 ovarian; OVCAR-5 ovarian; SNB-75 CNS; SF-268 CNS.
Holding throughout (test): DTP human tumour cell line panel, 48 h

Usually TGI stands for the concentration at which net growth stops. Read a high TGI as lower sensitivity of the cells. In the case of `Cc1ccnc(Nc2[nH]c(C(=O)c3ccc(Cl)cc3)c(N)c2C(=S)Nc2ccccc2)c1`, the TGI stood at 36.9 µM in the test on A498 renal; 29.9 µM with COLO 205 colon; 39 µM in the test on SR leukemia; 52.4 µM with K-562 leukemia; 69.2 µM in the test with TK-10 renal; 45.6 µM with NCI-H226 lung. For the same molecule, the TGI in the test on HOP-92 NSCLC is 35.3 µM; with SK-OV-3 ovarian, 35 µM; in the test on OVCAR-5 ovarian, 55.3 µM; in the test with SNB-75 CNS, 39.7 µM; with SF-268 CNS, 59.8 µM.
With `CC(NNC(=O)c1ccncc1)c1cccc(C(F)(F)F)c1` (centres undefined), the total growth inhibition concentration (TGI) in the test on A498 renal, in the test with COLO 205 colon, in the test with SR leukemia, in the test with K-562 leukemia, with TK-10 renal and with NCI-H226 lung was greater than 100 µM each time. Also, the TGI in the test on HOP-92 NSCLC, in the test with SK-OV-3 ovarian, with OVCAR-5 ovarian, in the test with SNB-75 CNS and with SF-268 CNS was greater than 100 µM throughout.
As to `CC1CN(CCO)CCN1c1ccccc1` (centres undefined), the TGI with A498 renal, in the test on COLO 205 colon, in the test on SR leukemia, in the test with K-562 leukemia, in the test on TK-10 renal and in the test on NCI-H226 lung was greater than 100 µM in each case. In addition, the TGI with HOP-92 NSCLC, in the test with SK-OV-3 ovarian, with OVCAR-5 ovarian, in the test with SNB-75 CNS and in the test on SF-268 CNS was greater than 100 µM in each case.
For orientation: GI50 means the concentration at which growth is held to half of that of the control. For `COc1ccc([I+]c2ccc(OC)cc2)cc1`, the GI50 in the test on A498 renal was 5.52 µM; in the test with COLO 205 colon it was 9.34 µM; with SR leukemia it was 3.81 µM; in the test on K-562 leukemia, 2.74 µM; in the test with NCI-H226 lung, 14.4 µM; with HOP-92 NSCLC it was 3.27 µM. Moreover, the GI50 in the test on OVCAR-5 ovarian is greater than 60.8 µM; in the test on SNB-75 CNS, 14.9 µM; in the test with SF-268 CNS, 12.6 µM. Besides, the TGI in the test on A498 renal, in the test on COLO 205 colon, in the test on SR leukemia, in the test on K-562 leukemia, with TK-10 renal and in the test with NCI-H226 lung was greater than 100 µM in each case. Besides, the TGI with HOP-92 NSCLC, in the test on SK-OV-3 ovarian, with OVCAR-5 ovarian, in the test with SNB-75 CNS and in the test on SF-268 CNS was greater than 100 µM in each case.
Take `COC(=O)C12Oc3ccc(-c4ccc5c(c4O)C(O)=C4C(=O)CC(C)C(O)C4(C(=O)OC)O5)c(O)c3C(O)=C1C(=O)CC(C)C2O` (centres undefined): the TGI with A498 renal is 1.81 µM; with COLO 205 colon, 0.195 µM; in the test on SR leukemia, 0.224 µM; with K-562 leukemia, greater than 100 µM; in the test on TK-10 renal it was 4.46 µM; in the test with NCI-H226 lung it was 4.36 µM. Moreover, the TGI was greater than 22.7 µM in the test on HOP-92 NSCLC; greater than 82.1 µM in the test with SK-OV-3 ovarian; 2.26 µM with OVCAR-5 ovarian; 2.92 µM with SNB-75 CNS; 1.84 µM in the test on SF-268 CNS.
As to `C=C1CCOC2(C(O)C(C)(O)CO)NC(=O)C1(O)NC2=O` (centres undefined), the TGI with A498 renal, in the test with COLO 205 colon, with SR leukemia, with K-562 leukemia, with TK-10 renal and with NCI-H226 lung was greater than 100 µM each time. Besides, the TGI with HOP-92 NSCLC, in the test with SK-OV-3 ovarian, with OVCAR-5 ovarian, in the test on SNB-75 CNS and in the test with SF-268 CNS was greater than 100 µM in each case.
Consider `COc1cc2c[n+](C)c3c4cc(OC)c(OCc5ccccc5)cc4c(OCc4ccccc4)cc3c2cc1OC`, for which the TGI with A498 renal was greater than 100 µM; in the test with COLO 205 colon, 2.97 µM; in the test with SR leukemia it was 6 µM; in the test on K-562 leukemia, greater than 25 µM; with TK-10 renal, 79 µM; in the test with NCI-H226 lung, 43.9 µM. Besides, the TGI in the test on HOP-92 NSCLC is 8.51 µM; with SK-OV-3 ovarian it was greater than 52.8 µM; in the test on OVCAR-5 ovarian, greater than 100 µM; in the test on SNB-75 CNS, 22.6 µM; in the test with SF-268 CNS, 17.4 µM.
For `CC(C)C(C(=O)N(C)[C@H](C(=O)N1CCC[C@H]1C(=O)N(C)[C@@H](Cc1ccccc1)C(=O)OCc1ccccc1)C(C)C)N(C)C(=O)[C@@H](NC(=O)OC(C)(C)C)C(C)C` (some centres undefined) (Boc-V[ξNMeV][NMeV]P[NMeF]-OBn), the TGI in the test on A498 renal is greater than 31.6 µM; in the test on COLO 205 colon, 35.2 µM; in the test with SR leukemia, greater than 31.6 µM; with K-562 leukemia, 12.6 µM; with TK-10 renal, greater than 31.6 µM; with NCI-H226 lung it was greater than 100 µM. Also, the TGI in the test with HOP-92 NSCLC is 30.4 µM; with SK-OV-3 ovarian, greater than 31.6 µM; in the test on OVCAR-5 ovarian, greater than 31.6 µM; with SNB-75 CNS, greater than 100 µM; in the test with SF-268 CNS it was greater than 31.6 µM.
`C(=N\NC1=NCCN1)/c1ccc2ccccc2c1`: the TGI with A498 renal was 28.9 µM; in the test on COLO 205 colon it was 20.4 µM; in the test with SR leukemia it was greater than 100 µM; in the test on K-562 leukemia, 32.6 µM; in the test with TK-10 renal, 26.4 µM; in the test on NCI-H226 lung, 51.2 µM. Besides, the TGI with HOP-92 NSCLC was 13.3 µM; with SK-OV-3 ovarian, 34.1 µM; with OVCAR-5 ovarian, 44 µM; with SNB-75 CNS it was greater than 100 µM; in the test on SF-268 CNS it was 47.6 µM.
In the case of `COc1ccc(N2C(=O)/C(=C/c3ccc(N(CCC#N)CCC#N)cc3)N=C2c2ccccc2)cc1`, the TGI with A498 renal, in the test with COLO 205 colon, with SR leukemia, in the test on K-562 leukemia, in the test on TK-10 renal and in the test on NCI-H226 lung was greater than 100 µM in each case. The TGI with HOP-92 NSCLC, with SK-OV-3 ovarian, in the test with OVCAR-5 ovarian, in the test with SNB-75 CNS and in the test on SF-268 CNS was greater than 100 µM each time.
With `CCC(Nc1ncnc2nc[nH]c12)C(=O)O` (centres undefined), the TGI in the test on A498 renal, with COLO 205 colon, in the test with SR leukemia, in the test on K-562 leukemia, in the test with TK-10 renal and in the test on NCI-H226 lung was greater than 100 µM in each case. The TGI in the test with HOP-92 NSCLC, with SK-OV-3 ovarian, with OVCAR-5 ovarian, in the test with SNB-75 CNS and with SF-268 CNS was greater than 100 µM in each case.
On to `O=C(NC1=C(Cl)C(=O)c2ccccc2C1=O)C(=O)C(C(=O)c1ccc2ccccc2c1)C1OC(=O)c2ccccc21` (centres undefined), for which the TGI in the test with A498 renal was found to be 18.4 µM; with COLO 205 colon, 18.5 µM; in the test on SR leukemia it was 29.4 µM; with K-562 leukemia, 25.6 µM; with TK-10 renal, 65.1 µM; in the test on NCI-H226 lung it was 7.09 µM. Also, the TGI in the test with HOP-92 NSCLC is 10.3 µM; in the test on SK-OV-3 ovarian, 44 µM; in the test with OVCAR-5 ovarian it was 27.5 µM; in the test with SNB-75 CNS it was 13.6 µM; with SF-268 CNS it was 29.6 µM.
For `CC(=O)Nc1ccc(/C=c2\sc3nnc(-c4cccnc4)n3c2=O)cc1`, the TGI with A498 renal was greater than 100 µM; with COLO 205 colon it was 29.8 µM; with SR leukemia, 46.7 µM; in the test on K-562 leukemia, 70.1 µM; in the test on TK-10 renal, 57.3 µM; in the test on NCI-H226 lung it was greater than 100 µM. Moreover, the TGI in the test with HOP-92 NSCLC is 44.2 µM; with SK-OV-3 ovarian, 66 µM; with OVCAR-5 ovarian, 67.1 µM; in the test on SNB-75 CNS, 57.7 µM; in the test with SF-268 CNS, 60 µM.
Take `Cc1[nH]c2nccn2c(=O)c1CCO`: the TGI in the test on A498 renal, in the test on COLO 205 colon, in the test on SR leukemia, in the test on K-562 leukemia, in the test with TK-10 renal and in the test on NCI-H226 lung was greater than 10 µM throughout. Moreover, the TGI in the test with HOP-92 NSCLC, in the test with SK-OV-3 ovarian, with OVCAR-5 ovarian, with SNB-75 CNS and in the test on SF-268 CNS was greater than 10 µM throughout.
Turning to `COc1cc(/C=C/C(=N\NC(N)=S)c2sc(NNC(C)=O)nc2C)ccc1O`, the TGI in the test on A498 renal, in the test on COLO 205 colon, in the test with SR leukemia, in the test with K-562 leukemia, with TK-10 renal and with NCI-H226 lung was greater than 100 µM each time. Also, the TGI in the test with HOP-92 NSCLC, with SK-OV-3 ovarian, in the test on OVCAR-5 ovarian, in the test on SNB-75 CNS and in the test on SF-268 CNS was greater than 100 µM in each case.
